Experimental findings from patent US20260256763A1, “Aromatic Amide Derivative, And Preparation Method Therefor And Use Thereof” (Zhejiang Hisun Pharmaceutical Co., Ltd., priority 2023, published 2026) are described below.

Molecules are shown by their SMILES.

The target in data set [1] is T1, recombinant human KIF18A (Homo sapiens, UniProt Q8NI77).
T1 construct: purchased GenScript
The experiment in a line: Inhibition on KIF18A enzyme activity (ADP-Glo). The data set is classed as biochemical. The settings on record: recombinant human KIF18A 100 nM, ATP 60 μM. The protocol:
Inhibition degrees of the compounds of the present invention on recombinant human KIF18A enzyme activity in vitro were determined by the following method. An ADP-Glo™ Kinase Assay kit (article number V9102) from Promega Company was used in this method. Detailed experimental operation can be referred to the instruction of the kit.
The reaction was carried out in a 384-well microplate. The test compound and the recombinant human KIF18A protein (final concentration of 100 nM, entrusted to GenScript for expression) were added into the wells and incubated at room temperature for 20 minutes, and subsequently, ATP solution (component V915A from the ADP-Glo™ Kinase Assay kit, final concentration of 60 μM) was added to the reaction solution and the obtained system was incubated at room temperature for 20 minutes. Subsequently, 5 μL of ADP-Glo Reagent was added to the reaction system and the obtained system was incubated at room temperature for 50 minutes. Then, 10 μL of Kinase Detection Reagent was added to the reaction system, and the obtained system was incubated at room temperature for 30 minutes. After the incubation was ended, a chemiluminiscence intensity value of each well was determined by a microplate reader in a Luminescence mode.
A general note: ADP-Glo turns the ADP formed in a reaction into a luminescent signal.

Data set [2] in a line: Pharmacokinetic testing in mice. The data set is classed as in vivo. The settings on record: male, mouse, ICR mice, plasma. How it is done: ICR mice were taken as test animals, and intragastrically administered with a control compound AMG650 and compounds 1, 18 and 29 of the present invention, and then drug concentrations in plasma at different moments were determined by an LC/MS/MS method, so as to study pharmacokinetic characteristics of the compounds of the present invention in the mice.
Control compound AMG650, and Compounds 1, 18 and 29.
ICR mice, male, 27.3-30.3 g, purchased from Vital River Laboratory Animal Technology Co., Ltd.
A proper amount of to-be-tested compound was weighed, proper amounts of DMA (N,N-dimethylacetamide), CrEL (polyoxyethylene 35 castor oil) and 5% GS (5% glucose injection) were added in sequence, and the obtained system was evenly mixed by ultrasonic vortex to prepare a 1 mg/mL preparation, wherein DMA, CrEL and 5% GS=10:10:80 (v:v:v).
ICR mice in each to-be-tested compound injection group (9 mice in each group) were fasted overnight and then intragastrically administered with the compound (PO, an administration dosage of the compound was 10 mg/kg and an administration volume of the compound was 10 mL/kg), and were fed 4 hours after administration.
0.25 hours, 0.5 hours, 1 hour, 2 hours, 4 hours, 8 hours, 10 hours and 24 hours before and after administration, about […] of blood was collected through an orbit, and a complete blood sample was placed in an EDTA-K2-containing anticoagulation tube. The collected blood sample was placed on ice, and plasma was centrifugally separated (centrifugation conditions: 1500 g, 10 minutes). The collected plasma was stored at −40~−20° C. before analysis.
A content of the to-be-tested compound in the plasma of the mice after intragastric administration was determined by LC-MS/MS.

Data set [3] has as its system OVCAR-3 human ovarian adenocarcinoma tumor fragment xenograft. Put plainly: Pharmacodynamic testing in OVCAR-3 tumor fragment xenograft model. The data set is classed as in vivo, BALB/c nude mice. The conditions noted are these: 16 days after administration; for Relative tumor volume (x ± S) / Tumor volume (x ± S): mean ± standard error; for Tumor volume (x ± S): in mm³. How it is done: An anti-tumor effect of Compound 1 of the present invention in a BALB/c nude mouse animal model with subcutaneous OVCAR-3 human ovarian adenocarcinoma tumor fragment xenograft was evaluated.
BALB/c nude mice, female, 6-7 weeks old, purchased from Jiangsu Gempharmatech Biotechnology Co., Ltd.
Mice in a solvent control group were given DMA:CrEL:5% GS=10:10:80 (v:v:v).
AMG650: a proper amount of AMG-650 was weighed, proper amounts of DMA, CrEL and 5% GS were added in sequence, and the obtained system was evenly mixed by ultrasonic vortex to prepare 0.8 mg/mL and 0.4 mg/mL preparations respectively, wherein DMA, CrEL and 5% GS=10:10:80 (v:v:v).
Compound 1: a proper amount of Compound 1 was weighed, proper amounts of DMA, CrEL and 5% GS were added in sequence, and the obtained system was evenly mixed by ultrasonic vortex to prepare 0.8 mg/mL and 0.4 mg/mL preparations respectively, wherein DMA, CrEL and 5% GS=10:10:80 (v:v:v).
An appropriate OVCAR-3 tumor-bearing animal was selected, a 1 mm×1 mm×1 mm OVCAR-3 tumor fragment was acquired aseptically and placed into normal saline for later use, which was used for subcutaneous tumor inoculation in a right side of back of the BALB/c nude mice.
About 1 mm×1 mm×1 mm OVCAR-3 tumor fragment was subcutaneously inoculated in the right side of back of the female BALB/c nude mice. When an average tumor volume reached about 100-250 mm^3, the mice were randomly grouped according to the tumor size, with 6 mice in each group.
Animals in each group were given the test compound once per day according to an animal weight at a fixed time every day by oral administration (po), the animals started to be administered with the test compound for the first time on the day of grouping for 22 consecutive days, and the animal weight was recorded every day. • The 1st group (G1) was a solvent control group; • The 2nd group (G2) and the 3rd group (G3) were orally administered with AMG-650 at administration dosages of 8 mg/kg and 4 mg/kg respectively once per day (QD); and • The 4th group (G4) and the 5th group (G5) were orally administered with Compound 1 at administration dosages of 8 mg/kg and 4 mg/kg respectively once per day (QD).
Tumor formation at an inoculation site of the animals in each group was observed, and a tumor volume was measured twice per week, and calculated according to the following formula: • a tumor volume (TV), a relative tumor volume (RTV), a relative tumor proliferation rate (T/C) and a relative tumor inhibition rate (TGI) were calculated according to the following formulas:
TV (tumor volume)=½×a×b^2, wherein a and b respectively represented a tumor length and a tumor width; (1)
RTV (relative tumor volume)=Vt/V0, wherein V0 was a tumor volume measured at the time of grouping, and Vt was a tumor volume in each measurement; (2)
T/C (%)=TRTV/CRTV×100%, wherein TRTV was RTV of a treatment group, and CRTV was RTV of a solvent control group; and (3)
TGI %=(1−T/C)×100%, wherein T and C were relative tumor volumes of the treatment group and the solvent control group at a specific time point respectively. (4)

T1 sequence (Q8NI77 whole entry): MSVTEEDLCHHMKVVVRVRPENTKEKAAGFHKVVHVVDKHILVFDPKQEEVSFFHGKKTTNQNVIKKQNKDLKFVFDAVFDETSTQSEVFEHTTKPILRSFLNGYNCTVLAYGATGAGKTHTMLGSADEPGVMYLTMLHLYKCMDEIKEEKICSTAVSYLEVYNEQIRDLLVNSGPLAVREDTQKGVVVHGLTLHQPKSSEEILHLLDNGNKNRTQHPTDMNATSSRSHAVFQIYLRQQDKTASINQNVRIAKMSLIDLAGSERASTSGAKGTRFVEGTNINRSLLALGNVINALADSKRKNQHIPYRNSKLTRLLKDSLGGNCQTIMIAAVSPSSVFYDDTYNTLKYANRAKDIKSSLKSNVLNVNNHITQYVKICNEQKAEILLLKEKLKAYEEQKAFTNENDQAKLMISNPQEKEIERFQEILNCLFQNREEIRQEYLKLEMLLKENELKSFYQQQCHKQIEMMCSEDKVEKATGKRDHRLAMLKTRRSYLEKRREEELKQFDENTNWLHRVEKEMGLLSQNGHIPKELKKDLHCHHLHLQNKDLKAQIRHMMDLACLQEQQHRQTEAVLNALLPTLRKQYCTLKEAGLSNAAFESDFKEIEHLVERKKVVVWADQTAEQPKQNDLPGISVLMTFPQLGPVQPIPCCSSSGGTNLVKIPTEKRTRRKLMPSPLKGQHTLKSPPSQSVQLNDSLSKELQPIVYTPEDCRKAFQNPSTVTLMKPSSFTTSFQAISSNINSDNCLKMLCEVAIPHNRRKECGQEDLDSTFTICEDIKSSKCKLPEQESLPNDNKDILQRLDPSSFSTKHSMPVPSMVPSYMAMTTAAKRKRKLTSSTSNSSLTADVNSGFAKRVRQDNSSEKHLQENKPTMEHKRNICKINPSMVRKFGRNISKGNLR
T1 sequence (P68363 whole entry partner): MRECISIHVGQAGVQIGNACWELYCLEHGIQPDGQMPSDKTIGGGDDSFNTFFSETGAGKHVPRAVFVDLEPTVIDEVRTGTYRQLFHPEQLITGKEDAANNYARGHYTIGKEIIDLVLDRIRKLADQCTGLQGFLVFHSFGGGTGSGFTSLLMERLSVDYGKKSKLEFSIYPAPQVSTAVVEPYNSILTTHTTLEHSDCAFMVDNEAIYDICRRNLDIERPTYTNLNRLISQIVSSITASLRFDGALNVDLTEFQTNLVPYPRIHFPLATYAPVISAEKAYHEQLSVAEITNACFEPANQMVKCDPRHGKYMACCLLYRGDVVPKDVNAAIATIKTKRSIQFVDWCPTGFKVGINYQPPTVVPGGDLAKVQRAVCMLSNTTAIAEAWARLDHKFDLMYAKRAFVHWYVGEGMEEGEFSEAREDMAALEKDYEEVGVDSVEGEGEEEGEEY
T1 sequence (Q9BVA1 whole entry partner): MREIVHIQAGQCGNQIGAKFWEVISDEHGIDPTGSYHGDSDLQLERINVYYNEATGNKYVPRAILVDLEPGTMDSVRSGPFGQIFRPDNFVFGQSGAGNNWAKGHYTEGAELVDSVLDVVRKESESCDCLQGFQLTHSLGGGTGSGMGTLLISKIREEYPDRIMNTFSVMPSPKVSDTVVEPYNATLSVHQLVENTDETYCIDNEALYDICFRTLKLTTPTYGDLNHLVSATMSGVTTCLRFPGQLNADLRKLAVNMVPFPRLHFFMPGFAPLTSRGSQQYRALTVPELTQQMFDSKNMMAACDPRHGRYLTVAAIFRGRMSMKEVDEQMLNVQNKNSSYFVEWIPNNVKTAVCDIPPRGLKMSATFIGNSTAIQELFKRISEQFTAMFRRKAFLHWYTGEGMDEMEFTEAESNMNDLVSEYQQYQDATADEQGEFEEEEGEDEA

By IC50 is commonly meant the concentration that inhibits the measured activity by half. What is called half-life is the time needed for the level to fall by half in the phase considered. As usually defined, the TGI is the reduction of tumour growth relative to the control group. A low value points to a weaker effect on the tumour. As to `CCS(=O)(=O)Nc1ccc(C(=O)Nc2cc3c(c(N4CCC(F)(F)CC4)c2)OCC3)c(N2CCC3(CC2)CC3)c1` [Example 1, N-(7-(4,4-difluoropiperidin-1-yl)-2,3-dihydrobenzofuran-5-yl)-4-(ethylsulfonamido)-2-(6-azaspiro[2.5]octan-6-yl)benzamide], the IC50 in data set [1] is 0.052 µM. For the same compound, the half-life in data set [2] (10 mg/kg, oral administration (10 mg/mL), read-out: Half-life period T½ (converted)) is 7.36 h. Also, the Cmax in data set [2] (10 mg/kg, oral administration (10 mg/mL), read-out: Plasma concentration Cmax) was determined as 12.4 µg/mL. For the same compound, in data set [2] (oral administration (10 mg/kg), read-out: Area under the curve AUC0-∞), the AUC(0-inf) was determined as 95.2 µg·h/mL. Moreover, in data set [3] (4 mg/kg po QD), the TGI is 81.3%, the “Relative tumor volume (x ± S)” value came to 0.61 ± 0.11 and the “Tumor volume (x ± S)” value is recorded as 120 ± 27. For the same compound, in data set [3] (8 mg/kg po QD), the TGI was found to be 95.2%, the “Relative tumor volume (x ± S)” value was 0.16 ± 0.03 and the “Tumor volume (x ± S)” value is 31 ± 8.
